# Earlier results in patent publication US20240390359A1, “METHODS FOR THE TREATMENT AND PREVENTION OF NON-VIRAL TICK-BORNE DISEASES AND SYMPTOMS THEREOF” (priority 2023, published 2024).
# Assays:
# Babesia microti = settings: Mongolian jirds; primaquine given daily; cited from earlier work
# P. falciparum [1] = settings: 250 mg/day; cited from earlier work
# P. falciparum [2] = settings: 250 mg/day; cited from earlier work; remark: listed apart in the source
# Babesia parasites = settings: 100 microM for 2h, in vitro; cited from earlier work
# [3] = tested on: Trypanosome brucei blood stage forms; settings: exposure for 90 minutes; cited from earlier work
# [4] = tested on: Borrelia burgdoferi B31 5A18NP1 strain; settings: 4 h; cited from earlier work
# Treponema palludum = settings: 50 or 100 microM for two hours in a 3% oxygen atmosphere; cited from earlier work
# [5] = tested on: various serovars of Leptospira; settings: exposure for as little as 30 min; cited from earlier work
# Babesia = settings: mice; cited from earlier work
# Pneumocystis = settings: mice; cited from earlier work
# [6] = tested on: P. falciparum gametocytes; settings: single dose combined with dihydroartemisinin/piperaquine; cited from earlier work
# B. rodhaini [7] = settings: cited from earlier work
# B. rodhaini [8] = settings: single dose of 20 mg/kg; immunocompromised SCID mice; cited from earlier work
# B. gibsoni = settings: splenectomized dogs, cited from earlier work
# [9] = tested on: blood stages of P. falciparum; settings: in vivo; cited from earlier work
# [10] = cited from earlier work
# [11] = 600 mg over three days then 200 mg weekly for up to one year; cited from earlier work
# Plasmodium vivax = settings: monotherapy 400 mg/day for three days, cited from earlier work
# Plasmodium falciparum = settings: 600 mg loading dose followed by 200 mg; challenge three days after last dose; all control subjects developed parasitemia; cited from earlier work
# [12] = tested on: extracellular blood stage forms of Trypanosoma brucei; settings: cited from earlier work
# [13] = tested on: intracellular amastigote forms of Leishmania major; settings: cited from earlier work
# [14] = tested on: free-living gram-negative and gram-positive bacteria; settings: cited from earlier work
# B. microti = settings: one patient, prior rituximab; tafenoquine as monotherapy for six weeks at approved malaria prevention dose; cited from earlier work
# [15] = in vivo; cited from earlier work
# [16] = cited from earlier work; remark: listed apart in the source
structure (smiles),measurement,setting,value
COc1cc(NC(C)CCCN)c2nccc(C)c2c1 (centres unmarked) [4-methyl substituted primaquine],efficacy against Babesia microti,Babesia microti,more efficacious than primaquine
CC[C@H]1OC(=O)[C@H](C)[C@@H](O[C@H]2C[C@@](C)(OC)[C@@H](O)[C@H](C)O2)[C@H](C)[C@@H](O[C@@H]2O[C@H](C)C[C@H](N(C)C)[C@H]2O)[C@](C)(O)C[C@@H](C)CN(C)[C@H](C)[C@@H](O)[C@]1(C)O [Azithromycin],"Protective Efficacy (%) Relative to Placebo, Pf/Semi-Immune",P. falciparum [1],83% (Anderson)
same,"Protective Efficacy (%) Relative to Placebo, PF/Non-immune or Malaria-naïve",P. falciparum [2],72% (Taylor)
OO [hydrogen peroxide],killing of Babesia parasites,Babesia parasites,kills Babesia parasites in vitro
same,hydrogen peroxide concentration that killed blood stage forms,[3],approximately 140 microM
same,lowest concentration that inhibited growth,[4],62.5 µM
same,growth,Treponema palludum,significantly inhibited
same,exogenous hydrogen peroxide concentrations that killed,[5],< 180 µM
COc1cc(NC(C)CCCN)c2ncccc2c1 (centres unmarked) [primaquine],single dose that cleared Babesia parasitemia,Babesia,100 mg/kg
same,cure of Pneumocystis infections,Pneumocystis,must be combined with clindamycin
same,time until gametocyte infectivity statistically lower than reference values,[6],two days post-dosing
"COc1cc(C)c2c(Oc3cccc(C(F)(F)F)c3)c(OC)cc(NC(C)CCCN)c2n1 (centres unmarked) [tafenoquine, N (4)-[2,6-Dimethoxy-4-methyl-5-[3-(trifluoromethyl)phenoxy]quinolin-8-yl] pentane-1,4-diamine]",single dose that cleared Babesia parasitemia,Babesia,20 mg/kg
same,formation of vacuoles in B. rodhaini blood stages,B. rodhaini [7]; single dose of 20 mg/kg in mice,induces the formation of large vacuoles
same,parasitemia,"B. rodhaini [7]; single dose of 20 mg/kg, Balb/c mice",cleared parasitemia
same,survival,"B. rodhaini [7]; single dose of 20 mg/kg, Balb/c mice, infection uniformly lethal in untreated animals",100%
same,antioxidant enzymes in B. rodhaini,B. rodhaini [7]; single dose treatment in mice,upregulated
same,death,B. rodhaini [8],delayed not prevent
same,parasitemia,"B. gibsoni; 100 mg tablet (9-11.5 mg/kg) on Days 12, 19 and 48",sufficient to clear and cure
same,"symptoms of infections such as anorexia, elevated respiration and pulse",B. gibsoni,alleviated
same,activity against the blood stages of P. falciparum,[9],quite effective
same,effect on QTC prolongation associated with chloroquine,[10]; coadministered with chloroquine,did not increase the QTC prolongation
same,effect on QTC interval,[10]; doses of up to 1200 mg over three days,not found to increase the upper limit of 90% confidence interval of the QTC interval
same,overall rate of adverse events relative to placebo,[11],without increasing the overall rate of adverse events
same,specific adverse events with increased risk,[11],gastrointestinal effects [mild to moderate] and cornea verticillata
same,day by which all patients cleared blood stage parasites,Plasmodium vivax,≤ 8 days
same,relapses during the follow up period,Plasmodium vivax; patients with data available,no relapses
same,development of blood stage parasitemia after challenge,Plasmodium falciparum,none of the tafenoquine subjects did
same,potency of killing,[12],< 4 µM
same,potency of killing,[13],< 4 µM
same,activity against gram-negative versus gram-positive bacteria,[14],much less active against free-living gram-negative bacteria than free-living gram-positive bacteria
same,clinical outcome of babesiosis treatment,B. microti,the patient was cured
same,half-life,[15],14 days
same,doses that may not be well tolerated,[16]; G6PD deficient subjects,≥ 300 mg
same,doses that may be well tolerated,[16]; G6PD normal adult subjects,up to 400 mg
same,doses often not well tolerated,[16]; adult subjects regardless of G6PD status,above 400 mg
